Assay results published in patent US5008291A, “Method and composition for achieving chemotherapeutic activity” (Ohio State University Research Foundation, priority 1989, dated 1991).
Entries after “also recorded” stand apart in the source; their conditions may differ.

Experiments:
beta-glucuronidase = settings: cells, blood, urine, intestine (and liver); cited from earlier work
[1] = Body weight of rats, Example II; assay type: in vivo, female Sprague Dawley rats; settings: for Final Weight: end of experiment; for Initial Weight: just before treatment
Protocol: Rat mammary tumors were induced by treating one hundred 50 day old female Sprague Dawley rats (Harlan Industries, Indianapolis, Ind.) by gavage with a single dose of 15 mg of 7,12-dimethylbenz(a)anthracene (Sigma Chemical Co., St. Louis, Mo.) in 1.0 ml of sesame oil, Abou-Issa et al., Proc. Natl. Acad. Sci. U.S.A., supra. The rats were maintained on a chow diet ad libitum until the tumors had formed in 70% of the rats and had reached a size of approximately 2.0 cm in diameter; 4 months later at which time they were randomized into six groups of 10 rats each. […] The latter vehicle was added to the diet of all six groups. The additives were blended into the diet with a mechanical mixer.
Tumor regression is indicated by at least 20% reduction in tumor size and each tumor is compared to its initial size on day zero. Weights of the rats on the control and experimental diets were recorded weekly.

[2] = tested on: established DMBA-induced mammary tumors; test: Growth of established DMBA-induced rat mammary tumors, Example II; assay type: in vivo, female Sprague Dawley rats; settings: for increase of tumor size / decrease of mammary tumor size: 25 days; for increase of tumor size: controls 98%; for tumor growth: diets supplemented with low ineffective doses; for effect on tumor growth/development when fed separately: low (ineffective) dosages fed separately
Protocol: Louis, Mo.) in 1.0 ml of sesame oil, Abou-Issa et al., Proc. Natl. Acad. Sci. U.S.A., supra. […] Tumor sizes were measured in all the rats just before placing them on the following experimental diets (Groups I-VI): (I) rat chow (RMH 3200, Pro Lab, Syracuse, N.Y.); […] Natl. Acad. Sci. U.S.A., supra. The latter vehicle was added to the diet of all six groups. The additives were blended into the diet with a mechanical mixer. All the tumors that developed within the time frame of this example are histologically adenocarcinomas. This finding has been previously reported by Huggins et al., Mammary cancer induced by a single feeding of polynuclear hydrocarbons, and its suppression, Nature, 185:204-207 (1961), in this animal model under the same conditions, and has been confirmed in several indentical experiments. At later time periods beyond the time frame of this example fibroadenomas usually develop, Welsch et al., In "Cellular and Molecular Biology of Mammary Cancer", ([…] and E. Anderson, eds.) Plenum Press, N.Y. 1987, pp 163-179. Tumor measurements were began at the time the rats were placed on the experimental diets and were continued twice weekly throughout the duration of the experiment. Two axes were measured - the longest axis (L) and the axis at right angles to the longest (W), using a vernier caliper. […] Weights of the rats on the control and experimental diets were recorded weekly.

[3] = as calcium glucarate; cited from earlier work
Estrogen Receptors = test: Estrogen receptors of established DMBA-induced mammary tumors; assay type: in vivo, female Sprague Dawley rats; settings: N 7
Protocol: (§1) Estrogen and progesterone receptors were measured in the OSU Hormone Receptor Laboratory by the multipoint dextran-coated charcoal method as previously described in Schuller et al., Estrogen and progesterone receptors in head and neck cancer, Arch. […] The data of specific binding were analyzed by Scatchard, The Attraction of proteins for small molecules and ions, Ann. N.Y. Acad. Sci. 51:660-672 (1949), plots to determine the equilibrium dissociation constant (Kd) and binding capacity expressed as femtomoles of estradiol or progesterone (R-5020) specifically bound per mg of cytosol protein for estrogen and progesterone receptors respectively. Cytosol protein concentrations were determined by the procedure of Lowry et al., Protein measurement with the folin phenol reagent, J. Biol. Chem. 193:265-275 (1951).

Progesterone Receptors = test: Progesterone receptors of established DMBA-induced mammary tumors; assay type: in vivo, female Sprague Dawley rats; settings: N 7
Protocol: as §1

[4] = tested on: 7,12-dimethylbenz(a)anthracene-induced mammary tumorigenesis; settings: cited from earlier work
sex hormones = settings: CGT diet; anti-promotional effect; cited from earlier work
[5] = tested on: DMBA-induced mammary tumors; test: DMBA-induced mammary tumor formation (chemoprevention), Example I; assay type: in vivo, female Sprague Dawley rats; settings: for No. of Rats with Tumors / Total No. Tumors: 20 rats
Protocol: They were maintained on the diets for approximately 4 mos., and were examined (palpated) for mammary tumors weekly. […] The retinoid (HPR) was first dissolved in 25 ml of a vehicle consisting of ethanol-tricaprylin-6% α-tocopherol, then thoroughly mixed with powdered rat chow.

chemical carcinogenesis = settings: sustained release dietary form; liver, lung, skin, mammary gland; cited from earlier work
[6] = Body weight gain of rats, Example I (FIG. 4); assay type: in vivo, female Sprague Dawley rats; settings: prolonged feeding of diets containing CGT and HPR
[7] = CGT-supplemented diet; cited from earlier work
MCF-7 cells = test: Growth of MCF-7 cells (GL, HPR, GL and HPR), Table II; assay type: cell-based, human; settings: 5 days; for No. of viable cells: mean ± SE of three experiments
Excerpt: The values shown are the mean +/- ISE for three experiments counted in triplicates. The numbers in parenthesis indicate the number of free floating (mostly non viable) cells in the media.

[8] = tested on: established DMBA-induced mammary tumors; test: HPR on already established DMBA-induced mammary tumors; assay type: in vivo, female Sprague Dawley rats
Protocol: When higher doses (2 mmol/kg diet) of HPR were used, growth arrest was followed within 5 to 10 days by 30% regression of the DMBA-induced mammary tumors. Also, HPR (0.1 uM) inhibited the […] growth of the human breast cancer cell line (MCF-7) to 50% of the control within 7 days.

[9] = rat, in vivo; cited from earlier work
[10] = tested on: established mammary tumors; test: HPR on established mammary tumors in CD8 F1 mice; assay type: in vivo; settings: CD8 F1 mice with established mammary tumors

2,4-di-O-acetyl-D-glucaro-1,4-lactone [reference compound]
inhibition of beta-glucuronidase (beta-glucuronidase): effective as inhibitors of beta-glucuronidase

O=C([O-])[C@@H](O)[C@@H](O)[C@H](O)[C@@H](O)C(=O)[O-].[Ca+2] [CGT, calcium glucarate]
Final Weight ([1]; CGT (2%)): 415 +/- 15 gm
Initial Weight ([1]; CGT (2%)): 401 +/- 10 gm
Final Weight ([1]; CGT (4%)): 429 +/- 26 gm
Initial Weight ([1]; CGT (4%)): 404 +/- 22 gm
increase of tumor size ([2]; CGT 64 mmol/kg): 55%
decrease of mammary tumor size ([2]; CGT 128 mmol/kg): 25%
tumor growth [2]: continued to grow
effect on tumor growth/development when fed separately [2]: enhanced tumor growth; also recorded: no observable inhibitory effect and indeed enhanced tumor development
dietary dosage that is non-toxic [3]: up to 10 % in the diet
Estrogen Receptors (Estrogen Receptors; CGT (2%)): 42.7 +/- 7.0 Fmoles/mg Protein
Estrogen Receptors (Estrogen Receptors; CGT (4%)): 44.3 +/- 5.9 Fmoles/mg Protein
Progesterone Receptors (Progesterone Receptors; CGT (2%)): 84.4 +/- 17.0 Fmoles/mg Protein
Progesterone Receptors (Progesterone Receptors; CGT (4%)): 82.0 +/- 16.0 Fmoles/mg Protein
tumor induction relative to controls ([4]; 4% CGT diet from two weeks after carcinogen, by 28 weeks): 30 % of that in the controls
regression of tumors ([4]; chow diet supplemented with CGT, some tumors): underwent regression
inhibition of beta-glucuronidase (beta-glucuronidase): effective as inhibitors of beta-glucuronidase
steady-state level of sex hormones (sex hormones): reduction in the steady-state level of sex hormones
Tumor Incidence ([5]; 1% CGT in diet): 55
Tumors Per Rat ([5]; 1% CGT in diet): 1.0
No. of Rats with Tumors ([5]; 1% CGT in diet): 11
Total No. Tumors ([5]; 1% CGT in diet): 20
Tumor Incidence ([5]; 2% CGT in diet): 55
Tumors Per Rat ([5]; 2% CGT in diet): 1.0
No. of Rats with Tumors ([5]; 2% CGT in diet): 11
Total No. Tumors ([5]; 2% CGT in diet): 20
Tumor Incidence ([5]; 4% CGT in diet): 35
Tumors Per Rat ([5]; 4% CGT in diet): 0.5
No. of Rats with Tumors ([5]; 4% CGT in diet): 7
Total No. Tumors ([5]; 4% CGT in diet): 10
inhibition of tumor incidence ([5]; CGT (4%)): 50-60%
inhibition of tumors/rat ([5]; CGT (4%)): 50-65%
minimum dosage used alone consistent with maximum inhibition of carcinogenesis ([5]; CGT alone, 4 gm/100 gm of chow diet): ~4 gm %
chemopreventive activity (chemical carcinogenesis): potent chemopreventative agent
effect on weight gain [6]: did not affect weight gain
food quantity and weight gain [7]: identical to those on the normal chow diet

O=C(O)[C@@H](O)[C@H]1OC(=O)[C@H](O)[C@H]1O [GL, D-glucaro-1,4-lactone]
inhibition of beta-glucuronidase (beta-glucuronidase): potent inhibitor of beta-glucuronidase
free floating (mostly non viable) cells, % of control (MCF-7 cells; GL (10^-3 M)): 7 % of control
number of free floating (mostly non viable) cells (MCF-7 cells; GL (10^-3 M)): 4560
No. of viable cells (MCF-7 cells; GL (10^-3 M)): 32560 ± 1800
free floating (mostly non viable) cells, % of control (MCF-7 cells; GL (10^-4 M)): 6 % of control
number of free floating (mostly non viable) cells (MCF-7 cells; GL (10^-4 M)): 3440
No. of viable cells (MCF-7 cells; GL (10^-4 M)): 49480 + 3160

CC1=C(/C=C/C(C)=C/C=C/C(C)=C/C(=O)Nc2ccc(O)cc2)C(C)(C)CCC1 [HPR, N-(4-hydroxyphenyl) retinamide]
Final Weight ([1]; HPR (0.75 mmol/kg)): 421 +/- 14 gm
Initial Weight ([1]; HPR (0.75 mmol/kg)): 409 +/- 18 gm
Final Weight ([1]; HPR (2.0 mmol/kg)): 413 +/- 10 gm
Initial Weight ([1]; HPR (2.0 mmol/kg)): 401 +/- 13 gm
inhibition of tumor growth ([8]; 1.0 mmol/kg diet daily, within 10 days): 80-90%
tumor growth ([8]; 2 mmol/kg diet): growth arrest
regression of DMBA-induced mammary tumors ([8]; 2 mmol/kg diet, within 5 to 10 days after growth arrest): 30%
tissue trophism [9]: displays trophism for the mammary gland
increase of tumor size ([2]; HPR 0.75 mmol/kg): 70%
decrease of mammary tumor size ([2]; HPR 2 mmol/kg): 15%
tumor growth [2]: continued to grow
effect on tumor growth/development when fed separately [2]: no observable inhibitory effect and indeed enhanced tumor development
Estrogen Receptors (Estrogen Receptors; HPR (2.0 mmol/kg)): 50.6 +/- 8.4 Fmoles/mg Protein
Progesterone Receptors (Progesterone Receptors; HPR (0.75 mmol/kg)): 90.7 +/- 18.0 Fmoles/mg Protein
Progesterone Receptors (Progesterone Receptors; HPR (2.0 mmol/kg)): 89.3 +/- 13.7 Fmoles/mg Protein
Tumor Incidence ([5]; 0.75 mmol/kg diet HPR): 60
Tumors Per Rat ([5]; 0.75 mmol/kg diet HPR): 1.0
No. of Rats with Tumors ([5]; 0.75 mmol/kg diet HPR): 12
Total No. Tumors ([5]; 0.75 mmol/kg diet HPR): 20
inhibition of tumor incidence ([5]; HPR (1.5 mmol)): 50-60%
inhibition of tumors/rat ([5]; HPR (1.5 mmol)): 50-65%
minimum dosage used alone consistent with maximum inhibition of carcinogenesis ([5]; HPR alone, in diet): 1.0 to 1.5 mmol/kg
inhibition of tumor growth [10]: 50%
effect on weight gain [6]: did not affect weight gain
free floating (mostly non viable) cells, % of control (MCF-7 cells; HPR (5 × 10^-8 M)): 7 % of control
number of free floating (mostly non viable) cells (MCF-7 cells; HPR (5 × 10^-8 M)): 4160
No. of viable cells (MCF-7 cells; HPR (5 × 10^-8 M)): 33680 ± 2627

O=C(O)[C@@H](O)[C@@H](O)[C@H](O)[C@@H](O)C(=O)[O-].[K+] [potassium hydrogen glucarate, reference compound]
inhibition of beta-glucuronidase (beta-glucuronidase): effective as inhibitors of beta-glucuronidase
